Earlier results, collected in EP0970199B1, “FLUORESCENT PROTEIN SENSORS FOR DETECTION OF ANALYTES” (The Regents of the University of California, priority 1997, dated 1998).

Conditions: fluorescein in 0.1 N NaOH; 9-aminoacridine in water

SMILES: Nc1c2ccccc2nc2ccccc12 [9-aminoacridine]
- quantum yield of standard: 0.98
